This passage reports Blutdrucksenkung results from EP0174571A2, “Derivatives of amino acids, process for their preparation and pharmaceutical compositions” (BOEHRINGER INGELHEIM KG, priority 1984, dated 1986).

One assay deals with narkotisierten Ratte. Put plainly: Blood pressure lowering in the anaesthetised rat after angiotensin I pressor stimulus. Type of assay: in vivo. To be noted: 0,3 mg/kg i.v.; blood pressure raised beforehand with 0,1 mg/kg Angiotensin I i.v.; long lasting. As for the experimental part:
So erzeugt das N-[N-(3-Phenyl-2-S-mercaptopropanoyl)-S-alanyl]-S-prolin an der narkotisierten Ratte in einer Dosierung von 0,3 mg/kg i.v. eine lang anhaltende Blutdrucksenkung von 67 %, wenn man vorher durch eine i.v.-Gabe von 0,1 mg/kg Angiotensin I den Blutdruck steigert.

The test system of a further assay is Kaninchen. Put plainly: Blood pressure test in the rabbit (carotid artery). Particulars: 1 mg/kg i.v.; blood pressure from the carotid. It counts as in vivo. As for the experimental part: Am Kaninchen (Blutdruckversuch aus der Carotis) wird nach Gabe von 1 mg/kg der Substanz, i.v., eine Blutdrucksenkung von 37 mm beobachtet.

Regarding `CC(NC(=O)C(S)Cc1ccccc1)C(=O)N1CCCC1C(=O)O` (centres unmarked) [Beispiel 1, N-[N-(3-Phenyl-2-S-mercatopropanoyl)-S-alanyl]-S-prolin], the Blutdrucksenkung worked out at 67% in the assay on narkotisierten Ratte and 37 mm in the assay with Kaninchen.
